In patent US20220280471A1, “Treatment of Affective Disorders” (Vanda Pharmaceuticals Inc., priority 2017, published 2022):

Test system: patients with MDD
Assay: Double-masked, placebo-controlled clinical study of tasimelteon in patients with MDD (NCT01428661), Hamilton Depression Scale
Format: in vivo, human
Procedure: A large clinical study was conducted to evaluate the effects of tasimelteon on depressive symptoms in patients with MDD. Details of the study design are set out in study number NCT01428661, available at clinicaltrials.gov. Aspects of the study relevant to the claimed invention are described below.
A total of 507 patients with MDD were enrolled in a double-masked, placebo-controlled study randomized on either tasimelteon 20 mg (n=254) or placebo (n=253). Patients were assessed at baseline and weekly for eight weeks on a number of depression scales, including the Hamilton Depression Scale (HAMD).

CCC(=O)NC[C@@H]1C[C@H]1c1cccc2c1CCO2 (relative stereo) [Tasimelteon, trans-N-[[2-(2,3-dihydrobenzofuran-4-yl)cycloprop-1yl]methyl] propanamide]
improvement on the HAMD scale (African-American MDD patients, at eight weeks, tasimelteon 20 mg (n=78), p=0.018 vs placebo): 9.9 points | responder analysis (improvement in the HAMD scale of 50% or greater from baseline), patients showing improvement (African-American MDD patients, at eight weeks, tasimelteon 20 mg, p=0.0019 vs placebo): 59% | improvement from baseline on the HAMD scale (all randomized MDD patients, tasimelteon 20 mg (n=254), p=0.57 vs placebo): 8.1 points
